Test results: patent US11969396B2, “IPA-3-loaded liposomes and methods of use thereof” (University of Georgia Research Foundation, Inc., priority 2016, dated 2024)

Legend:
[1] = system: LNCaP cells; assay: In vitro cytotoxicity, MTT staining; format: cell-based; conditions: Homo sapiens
Experimental: (§1) The human prostate cancer cell lines PC-3, LNCaP and DU-145 and the breast cancer cell lines MCF-7 and MDA-231 were purchased from ATCC (Manassas, Va.). PC-3, LNCaP, and DU-145 cells were cultured in F12K, RPMI, and EMEM, respectively. MCF-7 and MDA-231 cells were cultured in RPMI. All culture media were supplemented with 10% FBS and 1% penicillin/streptomycin antibiotics (ATCC). All the cells were maintained at 37° C. in incubators with 5% CO2 and humidified atmosphere.
(§2) The cytotoxicity of the liposomal IPA-3 as well as the free IPA-3 was determined in three prostate cancer cell lines (PC-3, LNCaP, and DU-145) using the MTT assay (Twentyman, et al., Br J Cancer. 1987; 56: 279-85). Free IPA-3 and SSL-IPA-3 were used for comparison. Cells were seeded in 48-well tissue culture plates at 5×10^4 cells/ml and incubated at 37° C. in a 5% CO2 incubator for 24 hr. This time was sufficient for the cells to attach and resume their growth. Liposomes were diluted in the different culture media to their final concentrations and experiments were performed in triplicates. […] Plates were shaken for 15 min and absorbance was read at 590 nm using a Spectra Max M2 plate reader (BMG Lab Technologies, Inc., Durham, NC). […]

[2] = system: PC-3 cells; assay: In vitro cytotoxicity, MTT staining; format: cell-based; conditions: Homo sapiens
Experimental: as §1, §2

[3] = system: DU-145 cells; assay: In vitro cytotoxicity, MTT staining; format: cell-based, human
Experimental: as §1, §2

[4] = system: MCF-7 cells; assay: In vitro cytotoxicity, MTT staining; format: cell-based; conditions: Homo sapiens, MCF7
[5] = system: MDA-231 cells; assay: In vitro cytotoxicity, MTT staining; format: cell-based; conditions: Homo sapiens, MDA-MB-231
[6] = system: human prostate cancer cell lines PC-3, LNCaP and DU-145; assay: In vitro cytotoxicity, MTT staining, across the prostate cancer cell lines; format: cell-based
Experimental: as §1, §2

[7] = system: PC-3 cells; assay: Cell death by annexin V and PI staining, flow cytometry; format: cell-based, human; conditions: 48 hr, free IPA-3 20-30 μM
[8] = system: PC-3 cell tumor xenografts; assay: In vivo prostate tumor xenograft growth; design: species or system athymic nude mice; conditions: 5 mg/kg i.p., 2 days/week, from day 7 to day 25
Experimental: (§3) All animal procedures listed in this article were performed as per the protocol approved by the Institutional Animal Care and Use Committee at the Charlie Norwood Veterans Affairs Medical Center, Augusta, GA (protocol #12-06-049). PC-3 cells were grown to 60-70% confluent in 225-ml flasks. Next, cells were collected and suspended in sterile normal saline. Cell suspension (3 million cells//mouse) was injected subcutaneously (SC) in 6-8-weeks-old male athymic nude mice (Harlan, Indianapolis, IN) (n=5-6). All the treatments (DMSO, empty liposomes, free IPA-3 (5 mg/Kg), and SSL-IPA-3 (5 mg/kg) were started on day 7 from tumor implantation, and were administered two times a week (i.p.). Tumor diameters were measured with digital calipers on day 7, 14, 21, and 25, and the tumor volume in mm^3 were calculated by the modified ellipsoidal formula (Tumor volume=½[length×width^2]). Average size of the tumors prior to the treatment with free IPA-3 and SSL-IPA-3 were 42 mm^3. Mice were sacrificed on day 25 and tumors were dissected, weighed, and snap-frozen for further immunohistochemistry analysis.

[9] = Body weight of tumor bearing mice; format: in vivo, athymic nude mice; conditions: 5 mg/kg i.p., 2 days/week; after 25 days
Experimental: as §3

[10] = system: PC-3 cell prostate tumor xenografts; assay: TUNEL assay of apoptosis in tumor xenograft sections; format: in vivo, athymic nude mice; conditions: 5 mg/kg i.p., 2 days/week; day 25
Experimental: as §3
The TUNEL assay for in situ detection of apoptosis was performed using the ApopTag® Fluorescein in situ Apoptosis detection kit (Millipore, MA) as described previously8. Frozen sections taken from prostate tumor xenografts were fixed in 2% paraformaldehyde at 4° C. for 30 min. […]

[11] = system: PC-3 cell tumor xenografts; conditions: daily administration (Al-Azayzih et al. 2015); cited from earlier work
[12] = free form (Rudolph et al. 2015); cited from earlier work

In the case of `Oc1ccc2ccccc2c1SSc1c(O)ccc2ccccc12` [IPA-3, 1,1′-Dithiodi-2-naphthtol], the IC50 [1] is reported as 10 µM, the IC50 [2] is reported as 12 µM and the “susceptibility of DU-145 cells compared to PC-3 and LNCaP cells” value [3] is reported as “less susceptible”. It also gave an IC50 ([3]; Homo sapiens, DU-145, DU-145) of ~32 µM, an IC50 [4] of 25 µM and an IC50 [5] of 8 µM. For the same compound, the IC50 ([6]; Homo sapiens, depending on the cell line, MTT staining) was 10 to 35 µM, the “effect on MTT staining” value ([6]; concentrations of 5-30 μM, 24, 48, 72 hrs) was “concentration-and time-dependent decreases in MTT staining” and the “percent of cells staining positive for annexin V alone” value [7] was “significantly increased”. The “percent of cells staining positive for both annexin V and PI” value [7] was “significantly increased”, the “PC-3 cell tumor xenograft growth” value [8] was “did not have a significant effect” and the “effect on body weight of mice” value [9] was “no significant effect”. For the same compound, the “number of apoptotic (TUNEL positive) cells per field compared to control groups” value [10] was “significant increases”, the “prostate tumor xenograft growth” value [11] was “reduced prostate tumor xenograft growth” and the half-life in vivo [12] was “very short half-life”.
